Measured values reported in US12116325B2, “Increased longevity of the nitrogen content of soil through improved liquid delivery formulations of nitrification inhibitors designed for urea and manure based fertilizers” (SOILGENIC TECHNOLOGIES, LLC, priority 2014, dated 2024).

Experiment: Degradation study of actives in DMSO at 50° C. by LC
Assay type: physicochemical
Procedure: A degradation study was performed using 2-chloro-6-(trichloromethyl)pyridine/nBPT in DMSO.
A 2-chloro-6-(trichloromethyl)pyridine/NBPT=1/1(w/w) mixture was dissolved in DMSO. LC (liquid chromatography) was performed to analyze the content decrease versus time. All samples were sealed and protected under N2. All samples were stored 50° C.
A C18 column was used, and measured at 255 nm. Retention time: 40 min.
Temperature: 30° C. 15 μL injection. Peak area percentages were calculated to analyze the concentration and are shown in below Table 3.

## Clc1cccc(C(Cl)(Cl)Cl)n1 [2-chloro-6-(trichloromethyl)pyridine]
1 week
  Content remaining, LC peak area percentage: 100%
2 week
  Content remaining, LC peak area percentage: 99%
3 week
  Content remaining, LC peak area percentage: 99.4%
4 week
  Content remaining, LC peak area percentage: 98.3%
6 week
  Content remaining, LC peak area percentage: 95.3%
7 week
  Content remaining, LC peak area percentage: 93.2%
8 week
  Content remaining, LC peak area percentage: 92.3%
9 week
  Content remaining, LC peak area percentage: 90.8%
10 week
  Content remaining, LC peak area percentage: 88%
11 week
  Content remaining, LC peak area percentage: 86.7%
12 week
  Content remaining, LC peak area percentage: 86.4%
13 week
  Content remaining, LC peak area percentage: 85%
14 week
  Content remaining, LC peak area percentage: 84.33%
15 week
  Content remaining, LC peak area percentage: 83.56%
16 week
  Content remaining, LC peak area percentage: 81.45%
17 week
  Content remaining, LC peak area percentage: 81%
18 week
  Content remaining, LC peak area percentage: 80.09%

## CCCCNP(N)(N)=S [n-butylthiophosphoric triamide]
Week 1, 1/1 (w/w) mixture in DMSO, 50° C., sealed under N2
  Content remaining, LC peak area percentage: 100%
Week 2, DMSO, 50° C.
  Content remaining, LC peak area percentage: 99.6%
Week 3, DMSO, 50° C.
  Content remaining, LC peak area percentage: 98%
Week 4, DMSO, 50° C.
  Content remaining, LC peak area percentage: 97.6%
Week 6, DMSO, 50° C.
  Content remaining, LC peak area percentage: 96.5%
Week 7, DMSO, 50° C.
  Content remaining, LC peak area percentage: 95.3%
Week 8, DMSO, 50° C.
  Content remaining, LC peak area percentage: 94.7%
Week 9, DMSO, 50° C.
  Content remaining, LC peak area percentage: 93%
Week 10, DMSO, 50° C.
  Content remaining, LC peak area percentage: 92.2%
Week 11, DMSO, 50° C.
  Content remaining, LC peak area percentage: 92.1%
Week 12, DMSO, 50° C.
  Content remaining, LC peak area percentage: 91.7%
Week 13, DMSO, 50° C.
  Content remaining, LC peak area percentage: 91%
Week 14, DMSO, 50° C.
  Content remaining, LC peak area percentage: 90.88%
Week 15, DMSO, 50° C.
  Content remaining, LC peak area percentage: 90.01%
Week 16, DMSO, 50° C.
  Content remaining, LC peak area percentage: 99.55%
Week 17, DMSO, 50° C.
  Content remaining, LC peak area percentage: 89.06%
Week 18, DMSO, 50° C.
  Content remaining, LC peak area percentage: 88.6%
